Laboratory results from publication PMC4318710 (Bioorganic & medicinal chemistry letters, 2015).

Key:
C57BL/6 mice = assay: in vivo serum iron levels in mice after intraperitoneal peptide injection; settings: 50-100 nmoles/mouse
[1] = stability on prolonged storage in DMSO; type: physicochemical; settings: 10 mM solution in DMSO, room temperature, 30 days, LC/MS/MS

Row | SMILES | serum iron at 6 and 24 h time points (C57BL/6 mice) | stability in DMSO [1] [%]
1 | CCCCCCCCCCCCCCCCNC(=O)CN(CC(N)=O)C(=O)CCCCCNC(=O)C[C@H](Cc1ccccc1)NC(=O)[C@H](CCCNC(=N)N)NC(=O)[C@H](CSC(=CP(=O)(OCC)OCC)P(=O)(OCC)OCC)NC(=O)[C@H](CCCNC(=N)N)NC(=O)C[C@@H]1CCCN1C(=O)[C@@H](NC(=O)[C@H](Cc1c[nH]cn1)NC(=O)[C@@H](NC(=O)CNCC(=O)O)[C@@H](C)O)C(c1ccccc1)c1ccccc1 [PR73SH] | decreased serum iron | 99.5±0.5
2 | CCCCCCCCCCCCCCCCNC(=O)CN(CC(N)=O)C(=O)CCCCCNC(=O)C[C@H](Cc1ccccc1)NC(=O)[C@H](CCCNC(=N)N)NC(=O)[C@H](CS)NC(=O)[C@H](CCCNC(=N)N)NC(=O)C[C@@H]1CCCN1C(=O)[C@@H](NC(=O)[C@H](Cc1c[nH]cn1)NC(=O)[C@@H](NC(=O)CNCC(=O)O)[C@@H](C)O)C(c1ccccc1)c1ccccc1 [PR73] | decreased serum iron | –
